The values that follow come from article PMC11638965, “Leveraging Dual-Ligase Recruitment to Enhance Protein Degradation via a Heterotrivalent Proteolysis Targeting Chimera” (Journal of the American Chemical Society, 2024).

Like-named read-outs stand apart in the source and are kept apart here.

The test system of one experiment is KBM7 cells. The experiment is described as follows: Cell viability assay (CellTiter-Glo). The experiment is classed as cell-based, human. The conditions noted are these: Homo sapiens, KBM-7; WT KBM7, 5.12 pM to 10 uM, n = 3 (Table S4). The procedure: (§1) Cells were seeded in 96-well plates at a cell density of […], and each treatment was performed in biological triplicates. Cell viability was assessed using the CellTiter-Glo assay (CellTiter-Glo Luminescent Cell Viability Assay, Promega G7573) according to manufacturer instructions. Luminescence signal was measured on a Multilabel Plate Reader Platform Victor X3 model 2030 (PerkinElmer). Survival curves and EC50 values were determined using GraphPad Prism v.10.0.3 by fitting a nonlinear regression to the log10-transformed drug concentration and the relative viability after normalization of each data point to the mean luminescence of the lowest drug concentration.
For orientation: Cellular ATP, detected with luciferase, serves as a proxy for viable cell number.

In another experiment the test system is K562 cells. Briefly: Cell viability assay (CellTiter-Glo). The format is cell-based, human. The following applies: Homo sapiens; WT K562, 5.12 pM to 10 uM, n = 3 (Table S4). On the procedure: as §1
The target in a further experiment is T1, BRD3 (Homo sapiens, UniProt Q15059).
T1 construct: HiBiT, is appended to the N-terminus of endogenous BRD2, BRD3, and BRD4; endogenous in cells
T1 sequence (Q15059 whole entry): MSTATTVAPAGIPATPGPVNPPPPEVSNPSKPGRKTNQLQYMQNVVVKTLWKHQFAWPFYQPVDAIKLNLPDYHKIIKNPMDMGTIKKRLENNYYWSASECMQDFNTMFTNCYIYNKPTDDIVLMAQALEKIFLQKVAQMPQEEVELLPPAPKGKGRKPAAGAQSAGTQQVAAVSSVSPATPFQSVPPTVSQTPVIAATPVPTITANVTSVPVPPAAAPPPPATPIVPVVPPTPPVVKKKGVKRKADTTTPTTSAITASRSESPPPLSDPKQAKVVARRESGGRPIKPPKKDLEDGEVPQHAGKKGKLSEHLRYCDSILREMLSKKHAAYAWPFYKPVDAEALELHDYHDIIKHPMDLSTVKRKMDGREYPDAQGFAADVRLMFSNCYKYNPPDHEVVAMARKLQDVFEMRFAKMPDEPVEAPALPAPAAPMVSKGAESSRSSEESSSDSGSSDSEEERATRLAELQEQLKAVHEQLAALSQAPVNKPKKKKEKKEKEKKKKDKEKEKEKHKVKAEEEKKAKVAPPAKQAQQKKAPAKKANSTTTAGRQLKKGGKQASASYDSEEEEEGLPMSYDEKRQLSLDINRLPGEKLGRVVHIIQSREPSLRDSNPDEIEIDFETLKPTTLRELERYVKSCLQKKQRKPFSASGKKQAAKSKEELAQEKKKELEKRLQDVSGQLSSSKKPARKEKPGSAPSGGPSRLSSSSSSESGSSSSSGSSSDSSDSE
Briefly: Live cell kinetic HiBiT degradation assay, HiBiT-BRD3 HEK293 cells. The experiment is classed as cell-based. The conditions noted are these: for DC50: HiBiT-BRD3 CRISPR knock-in HEK293 cells, live cell kinetic degradation, 24 h, read-out: Dmax 50 BRD3; for λmax BRD3 (degradation rate): HiBiT-BRD3 knock-in HEK293 cells. On the procedure:
HEK293 HiBiT-BRD2 (LgBiT stable), HEK293 HiBiT-BRD3 (LgBiT stable), and HEK293 HiBiT-BRD4 (LgBiT stable) were created using CRISPR/Cas9 to insert at HiBiT tag at the N-terminal genomic loci of BRD2, BRD3, or BRD4 in a cell line stably expressing LgBiT protein as described previously.[23]
For kinetic degradation experiments, HEK293 HiBiT-BRD2, 3, or 4 (LgBiT stable) cells and HEK293 HiBiT-BRD4 (LgBiT) CRBN KO and VHL KO cells were plated at 20,000 cells/well in DMEM +10% FBS in white 96-well tissue culture plates and allowed to adhere overnight. The next day, media was removed and 90 μL of prewarmed CO2-independent medium (Gibco) containing Endurazine (Promega) at a 1:100 dilution from stock was added. Plates were incubated at 37 °C for 3 h to allow luminescence to equilibrate. A threefold dilution series of each PROTAC at 10x the desired final concentration was prepared (with the amount of DMSO in each treatment condition kept constant). After luminescence equilibration, a preread luminescence measurement was taken (prior to compound addition) to allow for baseline normalization to account for possible plating differences. Cells were then treated with 10 μL of the prepared PROTAC dilution series (in triplicate or quadruplicate). Treated plates were placed in a GloMax Discover luminometer (Promega) prewarmed to 37 °C and luminescence measurements were obtained every 7 min for 24 h. Kinetic degradation plots were obtained by first normalizing time course luminescence readings in each well to the preread measurement, then to the average value of the DMSO only control at each time point. Data was analyzed using GraphPad Prism (version 8) and excel. Dmax values were identified as the lowest luminescence reading in each well. Rate constant values were calculated using a one phase exponential decay Y = (Y0-Plateau) e(K*^X) + Plateau using Prism (Y0 constrained to 1). Dmax 50 values were calculated by plotting Dmax as a function of concentration, then fitting plots using the following equation: [drawing 1] to determine IC50.

A further experiment has as its target BRD4 (Homo sapiens, UniProt O60885). The experiment is described as follows: Live cell kinetic HiBiT degradation assay, HiBiT-BRD4 HEK293 cells (parental, CRBN KO, VHL KO). The following applies: for EC50: HiBiT-BRD4 CRISPR knock-in HEK293 cells, live cell kinetic degradation, 24 h, read-out: Dmax 50 BRD4; for λmax BRD4 (degradation rate): HiBiT-BRD4 knock-in HEK293 cells; for fold increase in degradation of BRD4 (Dmax 50) vs matched pair: 23 vs 1, 26 vs 23, 30 vs 2, HiBiT-BRD4 HEK293 cells. The experiment is classed as cell-based. An outline of the steps: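 Endogenous N-terminal HiBiT-BRD4 HEK293 cells stably expressing LgBiT (parental, CRBN KO, VHL KO) in CO2-independent medium with Endurazine, pre-equilibrated 3 h at 37 °C. Luminescence read every 7 min for 24 h after PROTAC addition (threefold series), normalized to pre-read and DMSO. Dmax = lowest reading; rate from one-phase decay; Dmax50 from Dmax-vs-concentration fit.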
On the technique in general: With HiBiT, luminescence reflects the tagged protein that the partner subunit can reach.

For another experiment, the system named is RKO WT cells. The experiment is described as follows: cells. The format is cell-based, human. The following applies: Homo sapiens, 316 pM to 10 μM.
[1] abbreviates: WT RKO, n = 3 (Table S4), read-out: EC50 RKO.

Take `Cc1ncsc1-c1ccc(CNC(=O)[C@@H]2C[C@@H](O)CN2C(=O)[C@@H](NC(=O)COCC(C)(COCCOCCOCCOC(=O)C[C@@H]2N=C(c3ccc(Cl)cc3)c3c(sc(C)c3C)-n3c(C)nnc32)COCCOCCOCCN2CCN(c3cccc4c3C(=O)N(C3CCC(=O)NC3=O)C4=O)CC2)C(C)(C)C)cc1` (mixture of isomers) [AB3029 (31), (17S)-11-((2-(2-(2-(4-(2-(2,6-dioxopiperidin-3-yl)-1,3-dioxoisoindolin-4-yl)piperazin-1-yl)ethoxy)ethoxy)ethoxy)methyl)-17-((2S,4R)-4-hydroxy-2-((4-(4-methylthiazol-5-yl)benzyl)carbamoyl)pyrrolidine-1-carbonyl)-11,18,18-trimethyl-15-oxo-3,6,9,13-tetraoxa-16-azanonadecyl 2-((S)-4-(4-chlorophenyl)-2,3,9-trimethyl-6H-thieno[3,2-f][1,2,4]triazolo[4,3-a][1,4]diazepin-6-yl)acetate]: the EC50 in the experiment on KBM7 cells turned out to be 294 nM; in the experiment with K562 cells it was 494 nM; at BRD4, 15 nM; in the experiment with RKO WT cells (setting [1]) it was 1020 nM. The DC50 at BRD3 was 6.2 nM. For the same molecule, the “λmax BRD3 (degradation rate)” value on BRD3 is 2.36 h⁻¹. In addition, the “λmax BRD4 (degradation rate)” value at BRD4 was found to be 1.99 h⁻¹.
In the case of `Cc1ncsc1-c1ccc(CNC(=O)[C@@H]2C[C@@H](O)CN2C(=O)[C@@H](NC(=O)COCC(C)(COCCOCCOCCOC(=O)C[C@@H]2N=C(c3ccc(Cl)cc3)c3c(sc(C)c3C)-n3c(C)nnc32)COCCOCCOCCN2CCN(c3cc4c(cc3F)C(=O)N(C3CCC(=O)NC3=O)C4=O)CC2)C(C)(C)C)cc1` (mixture of isomers) [AB3030 (32), (17S)-11-((2-(2-(2-(4-(2-(2,6-dioxopiperidin-3-yl)-6-fluoro-1,3-dioxoisoindolin-5-yl)piperazin-1-yl)ethoxy)ethoxy)ethoxy)methyl)-17-((2S,4R)-4-hydroxy-2-((4-(4-methylthiazol-5-yl)benzyl)carbamoyl)pyrrolidine-1-carbonyl)-11,18,18-trimethyl-15-oxo-3,6,9,13-tetraoxa-16-azanonadecyl 2-((S)-4-(4-chlorophenyl)-2,3,9-trimethyl-6H-thieno[3,2-f][1,2,4]triazolo[4,3-a][1,4]diazepin-6-yl)acetate], the EC50 in the experiment with KBM7 cells was determined as 78 nM; in the experiment with K562 cells it was 192 nM; at BRD4 it was 7.4 nM; in the experiment on RKO WT cells (setting [1]) it was 402 nM. The DC50 at BRD3 is 1.7 nM. In addition, the “λmax BRD3 (degradation rate)” value on BRD3 was determined as 2.97 h⁻¹. Also, the “λmax BRD4 (degradation rate)” value at BRD4 was 2.19 h⁻¹.
As for `Cc1ncsc1-c1ccc(CNC(=O)[C@@H]2C[C@@H](O)CN2C(=O)[C@@H](NC(=O)COCC(C)(COCCOCCOCCNc2cccc3c2C(=O)N(C2CCC(=O)NC2=O)C3=O)COCCOCCOCCOC(=O)C[C@@H]2N=C(c3ccc(Cl)cc3)c3c(sc(C)c3C)-n3c(C)nnc32)C(C)(C)C)cc1` (mixture of isomers) [AB3062 (23), (17S)-11-((2-(2-(2-((2-(2,6-dioxopiperidin-3-yl)-1,3-dioxoisoindolin-4-yl)amino)ethoxy)ethoxy)ethoxy)methyl)-17-((2S,4R)-4-hydroxy-2-((4-(4-methylthiazol-5-yl)benzyl)carbamoyl)pyrrolidine-1-carbonyl)-11,18,18-trimethyl-15-oxo-3,6,9,13-tetraoxa-16-azanonadecyl 2-((S)-4-(4-chlorophenyl)-2,3,9-trimethyl-6H-thieno[3,2-f][1,2,4]triazolo[4,3-a][1,4]diazepin-6-yl)acetate], the EC50 in the experiment on KBM7 cells was 104 nM; in the experiment on K562 cells, 212 nM; at BRD4 it was 11 nM; in the experiment on RKO WT cells (setting [1]) it was 420 nM. Also, the DC50 at BRD3 came to 5.7 nM. Further, the “λmax BRD3 (degradation rate)” value at BRD3 amounted to 2.06 h⁻¹. In addition, the “fold increase in degradation of BRD4 (Dmax 50) vs matched pair” value on BRD4 stood at 3.4 fold. In addition, the “λmax BRD4 (degradation rate)” value at BRD4 is 1.40 h⁻¹.
Turning to `Cc1ncsc1-c1ccc(CNC(=O)[C@@H]2C[C@@H](O)CN2C(=O)[C@@H](NC(=O)COCC(C)(COCCOCCOCCNc2cc3c(cc2F)C(=O)N(C2CCC(=O)NC2=O)C3=O)COCCOCCOCCOC(=O)C[C@@H]2N=C(c3ccc(Cl)cc3)c3c(sc(C)c3C)-n3c(C)nnc32)C(C)(C)C)cc1` (mixture of isomers) [AB3063 (26), (17S)-11-((2-(2-(2-((2-(2,6-dioxopiperidin-3-yl)-6-fluoro-1,3-dioxoisoindolin-5-yl)amino)ethoxy)ethoxy)ethoxy)methyl)-17-((2S,4R)-4-hydroxy-2-((4-(4-methylthiazol-5-yl)benzyl)carbamoyl)pyrrolidine-1-carbonyl)-11,18,18-trimethyl-15-oxo-3,6,9,13-tetraoxa-16-azanonadecyl 2-((S)-4-(4-chlorophenyl)-2,3,9-trimethyl-6H-thieno[3,2-f][1,2,4]triazolo[4,3-a][1,4]diazepin-6-yl)acetate], the EC50 worked out at 21.2 nM with KBM7 cells; 74.1 nM in the experiment on K562 cells; 3 nM at BRD4; 260 nM in the experiment on RKO WT cells (72 h, 3 days, n = 3 (Figures 5 and 8C, Table S5), read-out: EC50 RKO WT); 165 nM in the experiment with RKO WT cells (setting [1]). Moreover, on BRD3, the DC50 worked out at 1.5 nM. Also, the “λmax BRD3 (degradation rate)” value on BRD3 amounted to 2.54 h⁻¹. Besides, the “fold increase in degradation of BRD4 (Dmax 50) vs matched pair” value at BRD4 is on record as 3.7 fold. Also, the “λmax BRD4 (degradation rate)” value at BRD4 came out at 1.98 h⁻¹.
For the molecule `Cc1ncsc1-c1ccc(CNC(=O)[C@@H]2C[C@@H](O)CN2C(=O)[C@@H](NC(=O)COCC(C)(COCCOCCOCCNc2cccc3c2C(=O)N(C2CCC(=O)NC2=O)C3=O)COCCOCCOC(=O)C[C@@H]2N=C(c3ccc(Cl)cc3)c3c(sc(C)c3C)-n3c(C)nnc32)C(C)(C)C)cc1` (mixture of isomers) [AB3064 (25), (14S)-8-((2-(2-(2-((2-(2,6-dioxopiperidin-3-yl)-1,3-dioxoisoindolin-4-yl)amino)ethoxy)ethoxy)ethoxy)methyl)-14-((2S,4R)-4-hydroxy-2-((4-(4-methylthiazol-5-yl)benzyl)carbamoyl)pyrrolidine-1-carbonyl)-8,15,15-trimethyl-12-oxo-3,6,10-trioxa-13-azahexadecyl 2-((S)-4-(4-chlorophenyl)-2,3,9-trimethyl-6H-thieno[3,2-f][1,2,4]triazolo[4,3-a][1,4]diazepin-6-yl)acetate], the EC50 with KBM7 cells amounted to 168 nM; in the experiment on K562 cells it was 369 nM; at BRD4 it was 31 nM; with RKO WT cells (setting [1]) it was 904 nM. For the same molecule, the DC50 on BRD3 came to 8.1 nM. Besides, the “λmax BRD3 (degradation rate)” value on BRD3 was 1.69 h⁻¹. The “λmax BRD4 (degradation rate)” value at BRD4 worked out at 1.09 h⁻¹.
